In patent US8470844B2, “Imidazoacridinone derivative compounds and methods for their use” (Technion Research & Development Foundation Limited, priority 2008, dated 2013):

Assays:
ABCG2 (A549/K1.5 cells) = target: T1, ABCG2 (A549/K1.5 cells) (Homo sapiens, UniProt Q9UNQ0); assay: Fluorescence microscopy of nuclear accumulation of IAs in A549/K1.5 cells; format: cell-based; conditions: 10 μM IA, 1 hr
T1 construct: Drug resistant A549/K1.5 cells with ABCG2 overexpression were maintained under a continuous drug selection with 1.5 μM C-1305; endogenous in cells; host or cells: A549/K1.5 (C-1305-selected subline of human non-small cell lung cancer A549)
T1 sequence (Q9UNQ0 1-655): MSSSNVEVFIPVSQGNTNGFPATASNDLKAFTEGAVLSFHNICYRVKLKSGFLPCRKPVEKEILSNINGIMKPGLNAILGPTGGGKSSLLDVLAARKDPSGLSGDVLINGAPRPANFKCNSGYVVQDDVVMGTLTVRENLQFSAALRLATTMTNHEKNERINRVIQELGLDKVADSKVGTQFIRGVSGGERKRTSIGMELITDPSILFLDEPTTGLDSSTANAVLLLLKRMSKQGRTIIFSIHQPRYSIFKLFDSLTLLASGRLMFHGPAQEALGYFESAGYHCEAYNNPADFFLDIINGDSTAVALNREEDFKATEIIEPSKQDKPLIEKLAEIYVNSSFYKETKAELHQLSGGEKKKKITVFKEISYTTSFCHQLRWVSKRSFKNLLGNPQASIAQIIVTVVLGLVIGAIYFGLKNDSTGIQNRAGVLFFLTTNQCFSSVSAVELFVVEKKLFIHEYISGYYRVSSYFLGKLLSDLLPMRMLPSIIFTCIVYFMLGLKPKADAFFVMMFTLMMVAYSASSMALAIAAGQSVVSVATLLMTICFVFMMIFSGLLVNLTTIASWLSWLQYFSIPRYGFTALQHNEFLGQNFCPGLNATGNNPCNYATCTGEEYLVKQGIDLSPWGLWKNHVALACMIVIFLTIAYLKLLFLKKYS
Experimental: In immunofluorescence microscopy of plasma membrane targeting of ABCG2 and nuclear accumulation of IAs, cells (1×10^4/well) were seeded in 24-well plates (1 ml medium/well) and incubated for 2 days, following which some wells were supplemented with 10 μM IA-containing medium±5 μM FTC and incubated for 1 h at 37° C. Cells were then washed twice with ice-cold PBS containing 0.1% BSA and blocked for 10 min at 4° C. with PBS containing 5% BSA. Cells were then washed once with ice-cold PBS containing 0.1% BSA and incubated for 30 min at 4° C. with a Phycoerythrin-conjugated, affinity-purified 5D3 mouse anti-human ABCG2 monoclonal antibody (1:100; eBioscience). Unspecific fluorescence was determined using cells that were incubated only with a secondary Phycoerythrin (PE)-conjugated goat anti-mouse IgG (1:200; Jackson Immunoresearch Labs, West Grove, Pa.). Cells were then washed twice and subjected to fluorescence microscopy using a DMIRE2 fluorescence microscope equipped with a DC300FX camera (Leica Microsystems, Wetzlar, Germany).
In order to exclude the possibility that differential subcellular accumulation of IA derivatives is the basis of the observed difference in cytotoxicity and cellular fluorescence, A549/K1.5 cells were incubated with 10 μM of selected IA derivatives from both group A and B in the presence or absence of FTC and subjected to fluorescence microscopy.

[1] = target: T2, FLT3 receptor tyrosine kinase (Homo sapiens, UniProt P36888); conditions: preclinical, from cited literature; cited from earlier work
T2 sequence (P36888 27-993): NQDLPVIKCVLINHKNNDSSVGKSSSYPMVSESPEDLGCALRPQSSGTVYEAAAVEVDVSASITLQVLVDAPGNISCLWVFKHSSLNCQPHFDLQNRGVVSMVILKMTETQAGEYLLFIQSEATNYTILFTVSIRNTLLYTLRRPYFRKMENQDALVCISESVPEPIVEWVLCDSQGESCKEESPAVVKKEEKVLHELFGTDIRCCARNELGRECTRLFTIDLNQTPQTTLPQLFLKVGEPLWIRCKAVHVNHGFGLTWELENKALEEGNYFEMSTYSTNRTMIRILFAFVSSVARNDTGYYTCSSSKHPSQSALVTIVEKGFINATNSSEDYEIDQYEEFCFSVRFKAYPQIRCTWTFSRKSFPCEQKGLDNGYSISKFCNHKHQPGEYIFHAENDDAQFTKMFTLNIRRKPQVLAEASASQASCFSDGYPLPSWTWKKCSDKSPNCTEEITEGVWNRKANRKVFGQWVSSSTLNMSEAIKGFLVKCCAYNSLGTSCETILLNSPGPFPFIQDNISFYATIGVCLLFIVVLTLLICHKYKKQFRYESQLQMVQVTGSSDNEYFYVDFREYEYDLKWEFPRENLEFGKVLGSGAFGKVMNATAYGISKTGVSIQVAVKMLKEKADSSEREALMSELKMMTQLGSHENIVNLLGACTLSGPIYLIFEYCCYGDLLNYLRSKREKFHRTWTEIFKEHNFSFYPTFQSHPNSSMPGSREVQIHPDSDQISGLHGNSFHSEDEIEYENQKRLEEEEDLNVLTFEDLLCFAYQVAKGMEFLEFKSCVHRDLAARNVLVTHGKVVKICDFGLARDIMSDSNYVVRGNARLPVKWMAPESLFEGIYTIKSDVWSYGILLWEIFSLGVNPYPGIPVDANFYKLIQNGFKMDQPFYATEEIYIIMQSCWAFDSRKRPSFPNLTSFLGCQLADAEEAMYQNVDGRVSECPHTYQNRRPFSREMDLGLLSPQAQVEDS

Structure (SMILES): CCN(CC)CCNc1ccc2ncn3c4ccc(O)cc4c(=O)c1c23 [C-1311]
- intracellular accumulation (fluorescence microscopy) (ABCG2 (A549/K1.5 cells); absence of FTC): no apparent intracellular accumulation
- nuclear accumulation (fluorescence microscopy) (ABCG2 (A549/K1.5 cells); presence of 5 μM FTC): marked restoration of nuclear accumulation
- FLT3 receptor tyrosine kinase inhibition (in words) [1]: potent and selective FLT3 receptor tyrosine kinase inhibitor
